The values that follow are results of earlier work, collected in patent US11549142B2, “CETP inhibitors for therapeutic use” (Hoffmann-La Roche Inc., priority 2013, dated 2023).

In data set [1] the target is T1, CETP (Homo sapiens, UniProt P11597).
T1 construct: host or cells: humans treated with the compound (endogenous plasma CETP)
T1 sequence (P11597 18-493): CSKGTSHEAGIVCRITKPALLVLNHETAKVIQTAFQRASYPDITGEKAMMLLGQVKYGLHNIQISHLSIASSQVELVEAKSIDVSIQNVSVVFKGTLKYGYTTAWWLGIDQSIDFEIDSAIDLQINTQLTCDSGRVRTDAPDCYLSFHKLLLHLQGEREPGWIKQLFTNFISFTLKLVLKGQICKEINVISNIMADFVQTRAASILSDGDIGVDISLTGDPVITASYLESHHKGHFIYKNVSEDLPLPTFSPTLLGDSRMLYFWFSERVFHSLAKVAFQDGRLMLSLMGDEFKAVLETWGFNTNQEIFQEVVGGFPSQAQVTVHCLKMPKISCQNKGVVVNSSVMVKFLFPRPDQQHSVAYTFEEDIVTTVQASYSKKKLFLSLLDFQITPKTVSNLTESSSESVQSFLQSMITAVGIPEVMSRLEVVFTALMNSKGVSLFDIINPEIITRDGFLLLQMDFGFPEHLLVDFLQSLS
The following applies: humans; de Grooth et al.; cited from earlier work.

Data set [2] deals with T2, CETP (Oryctolagus cuniculus, UniProt P22687).
T2 construct: host or cells: rabbits (endogenous plasma CETP)
T2 sequence (P22687 2-497): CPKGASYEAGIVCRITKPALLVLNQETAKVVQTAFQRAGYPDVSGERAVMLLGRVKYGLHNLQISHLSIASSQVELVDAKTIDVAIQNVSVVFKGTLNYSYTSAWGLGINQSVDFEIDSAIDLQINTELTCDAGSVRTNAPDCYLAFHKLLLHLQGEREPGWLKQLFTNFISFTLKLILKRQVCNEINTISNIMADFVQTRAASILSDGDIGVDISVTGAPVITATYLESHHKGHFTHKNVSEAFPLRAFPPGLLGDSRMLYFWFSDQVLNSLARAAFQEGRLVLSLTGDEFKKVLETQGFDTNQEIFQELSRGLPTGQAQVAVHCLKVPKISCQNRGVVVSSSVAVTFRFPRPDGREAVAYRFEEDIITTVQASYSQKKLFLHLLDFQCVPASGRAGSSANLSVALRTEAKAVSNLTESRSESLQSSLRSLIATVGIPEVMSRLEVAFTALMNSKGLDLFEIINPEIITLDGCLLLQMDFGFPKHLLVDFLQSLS
The following applies: rabbits; Shinkai et al., Kobayashi et al., Okamoto et al.; cited from earlier work.

The conditions of data set [3]: humans; de Grooth et al.; cited from earlier work.
For data set [4] the following is noted: rabbits, Okamoto et al., cited from earlier work.

Each structure is given as a SMILES string. Like-named read-outs stand apart in the source and are kept apart here.

`CCC(CC)CC1(C(=O)Nc2ccccc2SC(=O)C(C)C)CCCCC1` [dalcetrapib, thioisobutyric acid S-(2-{[1-(2-ethyl-butyl)-cyclohexanecarbonyl]-amino}-phenyl) ester]: the CETP activity entry at CETP [1] and on CETP [2] was “inhibitor of CETP activity” throughout. Also, the LDL cholesterol result in data set [3] and in data set [4] was “decrease LDL cholesterol” throughout. Also, the “plasma HDL cholesterol” value in data set [3] is recorded as “increase plasma HDL cholesterol”; in data set [4] (Shinkai et al., Kobayashi et al.), “increase plasma HDL cholesterol”.
